Usually IC50 stands for the concentration needed to halve the response being measured. A lower IC50 goes with higher potency. One may read the inhibition in vivo as the percentage by which the read-out fell short of the control. Read a high inhibition in vivo as a strong effect. In general, Inhibition refers to the share of the control response that was lost under treatment. Lower therefore signals little suppression.

SMILES strings stand for the structures. A value given as a limit tells only on which side of the number the result lay.

The species entered for one data set is Rattus norvegicus. The data set is described as follows: Anti-angiogenic activity as inhibition of microvessel growth in rat aortic ring cultured in a fibrin clot. The data set is classed as functional. To be noted: Aorta.
The nature of data set [1]: Compound was evaluated for ocular toxicity assessed after oral dosing at 40 mg/kg b.i.d. in male Wistar rat; Yes. Details: dose 40 mg/kg, route oral. The data set is classed as organism-based, Eye. To be noted: in vivo.
The subject of data set [2] is 3LL cell line. The data set is described as follows: In vivo anti-tumor and anti-metastatic activity was measured after oral dosing 15 mg/kg b.i.d. to B6D2F1 mice bearing metastatic 3LL Lewis lung tumor. The data set is classed as functional. To be noted: Mus musculus.
The nature of data set [3]: Compound was evaluated for ocular toxicity assessed after oral dosing at 40 mg/kg b.i.d. in male Wistar rat; No. The data set is classed as organism-based, Eye. Also on record: dose 40 mg/kg, route oral. Conditions: in vivo.
The test system of data set [4] is 3LL cell line. The data set is described as follows: In vivo anti-tumor and anti-metastatic activity was measured after oral dosing b.i.d. to B6D2F1 mice bearing metastatic 3LL Lewis lung tumor. The data set is classed as functional, Mus musculus.
Data set [5] is described as follows: Compound was evaluated for ocular toxicity assessed after oral dosing at 40 mg/kg b.i.d. in male Wistar rat; Very weak. The data set is classed as organism-based, Eye. Also on record: dose 40 mg/kg, route oral. To be noted: in vivo.

Compound `Cc1nsc(-c2ccc(N3CCN(c4cccc([N+](=O)[O-])c4)CC3)nn2)n1` gave an IC50 in the data set filed under Rattus norvegicus of 3 nM. Moreover, the Eye toxicity result in data set [1] is listed as “Yes”.
In the data set listed under Rattus norvegicus, `Cc1nsc(-c2ccc(N3CCN(c4ccc(C(F)(F)F)cc4)CC3)nn2)n1` showed a concentration for half-maximal inhibition (IC50) of 12 nM. This lies in the double-digit nanomolar range.
For `Cc1nsc(-c2ccc(N3CCN(c4ccccc4C(F)(F)F)CC3)nn2)n1`, the IC50 in the data set listed under Rattus norvegicus was 0.2 nM. The Eye toxicity result in data set [1] was “Yes”.
Compound `CN(C)c1nsc(-c2ccc(N3CCN(c4ccccc4)CC3)nn2)n1` registered an inhibition in vivo at 15 mg/kg in the data set with 3LL cell line [2] of 13%. This compound also yielded an IC50 in the data set filed under Rattus norvegicus of 0.1 nM. For the same compound, in data set [3], the Eye toxicity entry was “No toxicity”.
With `Cc1nsc(-c2ccc(N3CCN(c4cc(Cl)cc(Cl)c4)CC3)nn2)n1`, in the data set filed under Rattus norvegicus, the half-inhibitory concentration (IC50) is less than 0.1 nM. The Eye toxicity result in data set [1] is given as “Yes”.
`FC(F)(F)c1cc(N2CCN(c3ccc(-c4ncns4)nn3)CC2)cc(C(F)(F)F)c1`: the Inhibition with 3LL cell line [4] is given as 24%. This compound displayed a 50% inhibitory concentration (IC50) in the data set filed under Rattus norvegicus of less than 1 nM. For the same compound, the Eye toxicity entry in data set [3] is recorded as “No toxicity”.
In turn, `Cc1nsc(-c2ccc(N3CCN(c4cccc(C(F)(F)F)c4)CC3)cc2)n1` displayed a 50% inhibitory concentration (IC50) in the data set listed under Rattus norvegicus of 10 nM. In addition, the Eye toxicity result in data set [3] is recorded as “No toxicity”.
Take `FC(F)(F)c1cccc(NC2CCN(c3ccc(-c4ncns4)nn3)CC2)c1`: at 15 mg/kg the inhibition in vivo with 3LL cell line [2] was 42%. Also, in the data set listed under Rattus norvegicus, the IC50 turned out to be 7 nM. For the same compound, in data set [3], the Eye toxicity entry was “No toxicity”.
`Cc1nsc(-c2ccc(N3CCN(c4cccc(C#N)c4)CC3)nn2)n1` yielded a half-maximal inhibitory concentration (IC50) in the data set filed under Rattus norvegicus of 3 nM.
`CN(C)c1nsc(-c2ccc(N3CCC(N4CCN(c5cccc(C(F)(F)F)c5)CC4)CC3)nn2)n1` came in with an inhibition in vivo at 15 mg/kg with 3LL cell line [2] of 25%. The compound also yielded a half-maximal inhibitory concentration (IC50) in the data set listed under Rattus norvegicus of less than 1 nM. Also, in data set [5], the Eye toxicity entry is recorded as “Very weak”.
Regarding `Cc1nsc(-c2ccc(N3CCN(c4cccc(F)c4)CC3)nn2)n1`, in the data set filed under Rattus norvegicus, the IC50 came to 6 nM. This lies in the single-digit nanomolar range.
`Cc1nsc(-c2ccc(N3CCN(c4cccc(C(F)(F)F)c4)CC3)nc2)n1`: in the data set listed under Rattus norvegicus, the IC50 stood at 5 nM. The Eye toxicity result in data set [3] is given as “No toxicity”.
`Cc1nsc(-c2ccc(N3CCN(c4cccc(C(F)(F)F)c4)CC3)nn2)n1`: in the data set filed under Rattus norvegicus, the IC50 was 0.3 nM. Moreover, in data set [1], the Eye toxicity entry was “Yes”.
For `FC(F)(F)c1cccc(N2CCN(c3ccc(-c4ncns4)nn3)CC2)c1`, the half-inhibitory concentration (IC50) in the data set listed under Rattus norvegicus was 70 nM. Moreover, the Eye toxicity entry in data set [3] is listed as “No toxicity”.
In the data set listed under Rattus norvegicus, `Cc1nsc(-c2ccc(N3CCN(c4cc(C(F)(F)F)cc(C(F)(F)F)c4)CC3)nn2)n1` showed an IC50 of less than 0.1 nM. In addition, the Eye toxicity result in data set [1] is recorded as “Yes”.
In the data set filed under Rattus norvegicus, `CCc1nsc(-c2ccc(N3CCN(c4cccc(C(F)(F)F)c4)CC3)nn2)n1` returned a concentration for half-maximal inhibition (IC50) of 8 nM. Besides, the Eye toxicity entry in data set [3] is “No toxicity”.
For `Cc1nsc(-c2nccc(N3CCN(c4cccc(C(F)(F)F)c4)CC3)n2)n1`, in that order: more than 100 nM and “No toxicity”.
For `Nc1nsc(-c2ccc(N3CCN(c4cccc(C(F)(F)F)c4)CC3)nn2)n1`, in that order: 20 nM and “No toxicity”.
Consider `Cc1nsc(-c2ccnc(N3CCN(c4cccc(C(F)(F)F)c4)CC3)n2)n1`, for which the half-maximal inhibitory concentration (IC50) in the data set listed under Rattus norvegicus is more than 100 nM.
For the compound `FC(F)(F)c1cccc(N2CCN(C3CCN(c4ccc(-c5ncns5)nn4)CC3)CC2)c1`, the inhibition in vivo at 15 mg/kg with 3LL cell line [2] was determined as 54%. The compound also registered an IC50 in the data set listed under Rattus norvegicus of 0.3 nM. The Eye toxicity entry in data set [3] is “No toxicity”.
Compound `Cc1nsc(-c2ccc(N3CCN(c4cccc(Cl)c4)CC3)nn2)n1` yielded a half-inhibitory concentration (IC50) in the data set listed under Rattus norvegicus of 0.6 nM. Moreover, the Eye toxicity result in data set [1] is “Yes”.
`COc1cccc(N2CCN(c3ccc(-c4nc(C)ns4)nn3)CC2)c1`: the half-maximal inhibitory concentration (IC50) in the data set filed under Rattus norvegicus turned out to be 7 nM.
With `CNc1nsc(-c2ccc(N3CCN(c4cccc(C(F)(F)F)c4)CC3)nn2)n1`, the 50% inhibitory concentration (IC50) in the data set filed under Rattus norvegicus came out at 3 nM. For the same compound, the Eye toxicity entry in data set [3] is recorded as “No toxicity”.
As to `Cc1nsc(-c2ccc(N3CCN(c4cccc(N)c4)CC3)nn2)n1`, in the data set filed under Rattus norvegicus, the IC50 is more than 100 nM.
For `CN(C)c1nsc(-c2ccc(N3CCN(c4cccc(C(F)(F)F)c4)CC3)nn2)n1`, the inhibition in vivo at 15 mg/kg in the data set with 3LL cell line [2] is 39%. Further, in data set [3], the Eye toxicity entry is listed as “No toxicity”.

The values above are taken from ChEMBL document CHEMBL1135068, “Synthesis and anti-angiogenic activity of 6-(1,2,4-thiadiazol-5-yl)-3-amino pyridazine derivatives” (Bioorg Med Chem Lett, 2002).
